Assay results taken from article PMC6815936, “A Pan-Cyclophilin Inhibitor, CRV431, Decreases Fibrosis and Tumor Development in Chronic Liver Disease Models” (The Journal of Pharmacology and Experimental Therapeutics, 2019).
Read-outs that look alike come from different tables or passages of the source. Square brackets hold non-standard residues; d marks the D form. Peptide text beside a SMILES is read from it. NMeThr(4R-Me,4-(CH2)6NHAc) = CN[C@H](C(=O)O)[C@H](O)[C@H](C)CCCCCCNC(C)=O; NMeL = CN[C@@H](CC(C)C)C(=O)O; NMeV = CN[C@H](C(=O)O)C(C)C; dNMeA = CN[C@H](C)C(=O)O; Abu = CC[C@H](N)C(=O)O

What was measured:
[1] = target: T1, recombinant Cyp D (PPIF) (Homo sapiens, UniProt P30405); test: Cyclophilin isomerase assay, Cyp D; type: biochemical
T1 construct: purchased Cedarlane Laboratories CLENZ385
Description: Cyclophilin isomerase activity was measured with an assay described by [Kofron et al. (1991)] with adaptations to 96-well plates. In this assay cyclophilins catalyze cis-to-trans isomerization of a proline peptide bond in a nitroanalide-coupled peptide substrate followed by cleavage of the trans-conformer peptide by α-chymotrypsin, release of the p-nitroaniline chromogen, and quantitation of p-nitroaniline by absorbance at 410 nm. All solutions were pre-equilibrated, and all assays were conducted at 4°C. Plates were preloaded with 5 µl peptide solution consisting of N-succinyl-alanine-alanine-proline-phenylalanine-p-nitroanilide (S7388; Sigma-Aldrich) and 400 mM lithium chloride (310468; Sigma-Aldrich) in anhydrous trifluoroethanol (T63002; Sigma-Aldrich). […] Absorbance measurements with a BMG Polarstar Galaxy plate reader were begun immediately and made at 6-second intervals for 6 minutes. Reaction curves were represented by increases in optical density 410 nm as a function of reaction time. For Ki determinations, initial reaction velocities were obtained from the reaction curves and plotted relative to substrate concentration, and the curves were fitted to the enzyme competitive inhibition model (GraphPad Prism) to derive Ki, maximum velocity (Vmax), and Michaelis constant values. […]

[2] = test system: NFAT promoter luciferase reporter, Jurkat cells; test: NFAT luciferase reporter assay in Jurkat cells; type: cell-based, human; details: for IC50: 18 hours, read-out: NFAT–Luc IC50; for NFAT–Luc IC50 Fold Difference: CRV431 vs CsA
Description: (§1) The luciferase reporter assays employed Jurkat cells stably transfected with gene constructs consisting of a luciferase gene plus human nuclear factor of activated T cells (NFAT) or interleukin-2 (IL-2) promoter elements (J1621 and J1651; Promega). The NFAT construct contained a DNA binding site only for NFAT, whereas the IL-2 construct contained binding sites for NFAT, nuclear factor κ-light-chain-enhancer of activated B cells, and activating protein-1 transcription factors. Cells were cultured in 96-well plates at 100,000 cells/well in RPMI 1640 medium (11875-093; Thermo Fisher) supplemented with 5% FBS (12483020; Thermo Fisher). Cells were activated either by precoating high protein-binding plates with 3 µg/ml anti-CD3 (UCHT clone) and anti-CD28 (CD28.2 clone) (BioLegend LEAF antibodies) or by adding phorbol myristate acetate (PMA; P8139; Sigma-Aldrich) to 15 ng/ml and A23187 ionophore (C7522; Sigma-Aldrich) to 0.75 µM. […] Cells were harvested after 18 hours of incubation, and luciferase was quantified with Promega Bio-Glo reagent (G7940; Promega) and measurement with a luminescence plate reader. Data were normalized to DMSO controls (100% stimulation) and to wells without antibody or PMA plus A23187 stimulation.

[3] = test system: Jurkat activation (NFAT and IL-2 luciferase reporters); test: Jurkat NFAT and IL-2 luciferase reporter assays taken together; type: cell-based, human
Description: as §1

[4] = CRV431 concentrations in blood and liver, rats; type: in vivo; details: Rat
Description: Male and female Sprague–Dawley rats and male C57BL/6 mice from the carbon tetrachloride and NASH studies were used to evaluate CRV431 pharmacokinetics and distribution. […] Terminal whole blood and livers were collected and frozen until drug extraction. Liver samples were homogenized in PBS or 1% formic acid (0.1 g–0.4 g liver sample per ml solvent) with bead-based homogenizers (TissueLyser or Beadruptor). […] Liver CRV431 concentrations were normalized to the masses of the liver samples.

[5] = target: P-gp (Homo sapiens, UniProt P08183)
Description: (§2) Briefly, PGP and breast cancer resistance protein inhibition was assessed by measuring the bidirectional transport of substrates across cell monolayers in transwell culture plates. Efflux ratios were represented as (apical-to-basal flux)/(basal-to-apical flux), and efflux ratios were plotted relative to CRV431 concentration to derive IC50 values. Bile salt export pump (BSEP) and multidrug resistance protein (MRP)1 inhibition was assessed by measuring substrate accumulation in membrane vesicles prepared from insect Sf9 cells and recombinantly expressing BSEP and MRP2 (Genomembrane). Inhibition of all other transporters was assessed by measuring substrate accumulation in cells recombinantly expressing the transporter. Known inhibitors of each transporter were used as positive controls for the assays. […] Specific, ATP-dependent uptake was determined by subtracting uptake in negative control vesicles and cells not expressing the transporters, and secondly by subtracting uptake in the absence of ATP in the assays. Specific, ATP-dependent uptake was plotted as a function of CRV431 concentrations and fitted to nonlinear regressions to obtain IC50 values.

[6] = target: OATP1B1 (Homo sapiens, UniProt Q9Y6L6)
Description: as §2

[7] = target: BSEP (Homo sapiens, UniProt O95342); test: Drug transporter inhibition, BSEP; details: Vesicles
Description: (§3) Bile salt export pump (BSEP) and multidrug resistance protein (MRP)1 inhibition was assessed by measuring substrate accumulation in membrane vesicles prepared from insect Sf9 cells and recombinantly expressing BSEP and MRP2 (Genomembrane). Inhibition of all other transporters was assessed by measuring substrate accumulation in cells recombinantly expressing the transporter. Known inhibitors of each transporter were used as positive controls for the assays. […] Specific, ATP-dependent uptake was determined by subtracting uptake in negative control vesicles and cells not expressing the transporters, and secondly by subtracting uptake in the absence of ATP in the assays. Specific, ATP-dependent uptake was plotted as a function of CRV431 concentrations and fitted to nonlinear regressions to obtain IC50 values.

[8] = target: OAT1 (Homo sapiens, UniProt Q4U2R8); test: Drug transporter inhibition, OAT1; details: OAT1, HEK293
Description: as §3

[9] = target: OCT2 (Homo sapiens, UniProt O15244); test: Drug transporter inhibition, OCT2; details: OCT2, HEK293
Description: as §3

[10] = target: OAT3 (Homo sapiens, UniProt Q8TCC7); test: Drug transporter inhibition, OAT3; details: OAT3, HEK293
OAT3, sequence (Q8TCC7 whole entry): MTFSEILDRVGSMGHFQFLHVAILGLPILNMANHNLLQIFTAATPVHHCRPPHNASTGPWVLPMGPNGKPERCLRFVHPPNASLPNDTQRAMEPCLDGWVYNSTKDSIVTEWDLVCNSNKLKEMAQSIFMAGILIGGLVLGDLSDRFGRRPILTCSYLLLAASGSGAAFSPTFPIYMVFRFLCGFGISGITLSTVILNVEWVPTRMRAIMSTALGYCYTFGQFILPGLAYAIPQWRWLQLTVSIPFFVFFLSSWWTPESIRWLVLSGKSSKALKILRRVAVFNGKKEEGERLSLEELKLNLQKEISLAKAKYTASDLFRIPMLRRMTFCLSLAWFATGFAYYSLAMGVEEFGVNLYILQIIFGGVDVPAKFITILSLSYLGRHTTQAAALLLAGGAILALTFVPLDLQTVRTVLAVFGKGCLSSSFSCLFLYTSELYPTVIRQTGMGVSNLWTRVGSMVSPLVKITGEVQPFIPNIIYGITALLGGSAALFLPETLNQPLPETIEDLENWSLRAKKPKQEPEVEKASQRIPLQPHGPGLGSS
Description: as §3

OCT2, sequence (O15244 whole entry): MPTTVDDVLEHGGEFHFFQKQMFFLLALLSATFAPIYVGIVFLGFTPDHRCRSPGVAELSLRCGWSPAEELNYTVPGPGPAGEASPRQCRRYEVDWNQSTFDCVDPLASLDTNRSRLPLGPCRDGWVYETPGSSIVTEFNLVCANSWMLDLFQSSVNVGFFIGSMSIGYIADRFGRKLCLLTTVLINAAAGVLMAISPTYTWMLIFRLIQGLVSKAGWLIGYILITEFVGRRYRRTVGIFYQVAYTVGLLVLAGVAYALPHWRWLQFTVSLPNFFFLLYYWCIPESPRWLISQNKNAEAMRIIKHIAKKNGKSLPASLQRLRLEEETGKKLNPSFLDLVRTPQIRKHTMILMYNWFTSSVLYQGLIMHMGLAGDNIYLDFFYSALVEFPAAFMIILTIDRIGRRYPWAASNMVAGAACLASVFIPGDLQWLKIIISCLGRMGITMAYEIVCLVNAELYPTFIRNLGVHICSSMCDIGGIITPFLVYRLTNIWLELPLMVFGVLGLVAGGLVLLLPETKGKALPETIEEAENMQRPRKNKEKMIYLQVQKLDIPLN
OAT1, sequence (Q4U2R8 whole entry): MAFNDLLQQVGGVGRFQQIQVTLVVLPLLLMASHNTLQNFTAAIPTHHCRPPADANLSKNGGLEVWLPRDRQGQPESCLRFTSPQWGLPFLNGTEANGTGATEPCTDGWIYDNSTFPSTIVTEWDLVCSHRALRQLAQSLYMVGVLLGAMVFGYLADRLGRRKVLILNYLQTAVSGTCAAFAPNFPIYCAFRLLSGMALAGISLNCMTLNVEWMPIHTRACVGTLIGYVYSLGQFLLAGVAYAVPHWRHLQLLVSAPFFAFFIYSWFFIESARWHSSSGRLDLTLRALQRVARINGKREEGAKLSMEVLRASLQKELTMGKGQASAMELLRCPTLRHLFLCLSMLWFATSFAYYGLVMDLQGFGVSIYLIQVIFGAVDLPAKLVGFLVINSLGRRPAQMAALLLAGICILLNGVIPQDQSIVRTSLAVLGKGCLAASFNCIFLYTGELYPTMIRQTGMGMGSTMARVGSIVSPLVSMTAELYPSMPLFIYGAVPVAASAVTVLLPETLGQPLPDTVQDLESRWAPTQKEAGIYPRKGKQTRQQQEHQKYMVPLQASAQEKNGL
T1 sequence (P30405 30-207): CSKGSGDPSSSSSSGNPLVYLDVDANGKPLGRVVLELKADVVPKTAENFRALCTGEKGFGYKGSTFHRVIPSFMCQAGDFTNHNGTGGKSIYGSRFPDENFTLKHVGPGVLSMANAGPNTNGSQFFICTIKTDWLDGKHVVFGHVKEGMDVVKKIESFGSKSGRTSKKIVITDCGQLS
BSEP, sequence (O95342 whole entry): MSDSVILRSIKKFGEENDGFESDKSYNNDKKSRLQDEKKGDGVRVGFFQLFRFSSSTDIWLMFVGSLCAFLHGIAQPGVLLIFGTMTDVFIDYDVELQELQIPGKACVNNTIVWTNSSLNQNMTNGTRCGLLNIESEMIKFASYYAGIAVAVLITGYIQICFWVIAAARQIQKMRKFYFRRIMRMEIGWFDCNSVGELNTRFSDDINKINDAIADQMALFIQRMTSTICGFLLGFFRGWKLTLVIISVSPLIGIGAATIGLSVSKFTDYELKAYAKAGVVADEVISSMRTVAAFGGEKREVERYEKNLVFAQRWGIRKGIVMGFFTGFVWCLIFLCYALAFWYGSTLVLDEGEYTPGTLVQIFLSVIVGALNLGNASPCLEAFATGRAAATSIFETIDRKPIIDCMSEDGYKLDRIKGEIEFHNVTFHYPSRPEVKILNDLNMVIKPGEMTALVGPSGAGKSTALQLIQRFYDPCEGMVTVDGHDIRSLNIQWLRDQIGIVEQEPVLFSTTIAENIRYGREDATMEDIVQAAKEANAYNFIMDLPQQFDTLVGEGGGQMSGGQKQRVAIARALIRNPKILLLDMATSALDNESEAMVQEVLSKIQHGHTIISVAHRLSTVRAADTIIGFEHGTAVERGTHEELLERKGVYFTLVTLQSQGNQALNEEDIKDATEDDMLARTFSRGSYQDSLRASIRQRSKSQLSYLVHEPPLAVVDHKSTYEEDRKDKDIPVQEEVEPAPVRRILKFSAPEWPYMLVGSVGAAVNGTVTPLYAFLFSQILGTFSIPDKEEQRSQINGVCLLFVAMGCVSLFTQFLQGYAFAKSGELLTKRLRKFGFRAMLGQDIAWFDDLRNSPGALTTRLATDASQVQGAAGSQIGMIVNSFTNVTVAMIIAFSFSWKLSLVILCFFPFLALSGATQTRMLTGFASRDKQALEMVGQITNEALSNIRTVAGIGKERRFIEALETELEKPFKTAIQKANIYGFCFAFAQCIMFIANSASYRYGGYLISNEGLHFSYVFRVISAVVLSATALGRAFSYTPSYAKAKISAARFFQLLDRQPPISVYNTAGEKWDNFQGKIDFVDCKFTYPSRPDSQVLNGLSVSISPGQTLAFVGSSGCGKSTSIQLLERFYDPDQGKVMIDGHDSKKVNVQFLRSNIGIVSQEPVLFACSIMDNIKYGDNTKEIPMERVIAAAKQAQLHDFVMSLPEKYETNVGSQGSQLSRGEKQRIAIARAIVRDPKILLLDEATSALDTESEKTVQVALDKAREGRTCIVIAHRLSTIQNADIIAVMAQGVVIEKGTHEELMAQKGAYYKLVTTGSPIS
OATP1B1, sequence (Q9Y6L6 whole entry): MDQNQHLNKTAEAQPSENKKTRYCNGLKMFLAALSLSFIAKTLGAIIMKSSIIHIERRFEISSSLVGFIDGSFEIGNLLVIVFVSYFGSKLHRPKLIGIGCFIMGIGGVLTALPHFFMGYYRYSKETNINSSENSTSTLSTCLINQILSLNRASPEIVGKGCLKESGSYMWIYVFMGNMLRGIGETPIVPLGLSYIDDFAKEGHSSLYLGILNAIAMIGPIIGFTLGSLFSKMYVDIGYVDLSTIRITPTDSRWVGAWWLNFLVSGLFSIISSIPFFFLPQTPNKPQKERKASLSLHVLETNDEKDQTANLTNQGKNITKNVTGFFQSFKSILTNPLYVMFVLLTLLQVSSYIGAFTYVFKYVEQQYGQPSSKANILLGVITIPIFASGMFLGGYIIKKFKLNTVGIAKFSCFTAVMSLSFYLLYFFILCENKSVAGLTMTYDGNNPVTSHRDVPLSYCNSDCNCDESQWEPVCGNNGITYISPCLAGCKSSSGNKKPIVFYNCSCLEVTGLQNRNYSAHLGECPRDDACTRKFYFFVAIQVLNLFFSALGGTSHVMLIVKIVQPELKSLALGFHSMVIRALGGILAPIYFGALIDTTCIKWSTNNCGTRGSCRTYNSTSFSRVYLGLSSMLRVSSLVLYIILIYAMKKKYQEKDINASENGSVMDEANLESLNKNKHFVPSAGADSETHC

SMILES: CC[C@@H]1NC(=O)[C@H]([C@H](O)[C@H](C)CCCCCCNC(C)=O)N(C)C(=O)[C@H](C(C)C)N(C)C(=O)[C@H](CC(C)C)N(C)C(=O)[C@H](CC(C)C)N(C)C(=O)[C@@H](C)NC(=O)[C@H](C)NC(=O)[C@H](CC(C)C)N(C)C(=O)[C@H](C(C)C)NC(=O)[C@H](CC(C)C)N(C)C(=O)[C@@H](C)N(C)C1=O [CRV431] (cyclo(A[dA][NMeL][NMeL][NMeV][NMeThr(4R-Me,4-(CH2)6NHAc)][Abu][dNMeA][NMeL]V[NMeL]))
- IC50 [1]: 2.8 nM
- IC50 Fold Difference ([1]; CsA IC50 vs CRV431 IC50, PPIF): 3.6
- IC50 ([2]; CD3 + CD28 antibodies stimulation): 292 nM
- NFAT–Luc IC50 Fold Difference ([2]; CD3 + CD28 antibodies): 65.4
- NFAT–Luc IC50 Fold Difference ([2]; PMA + A23187): 60.2
- IC50 ([2]; PMA + A23187 stimulation): 205 nM
- times less potent than CsA on Jurkat–NFAT cells ([2]; ratio of CRV431 and CsA IC50): ~63 times
- suppression of Jurkat activation ([3]; CRV431 tested up to 20 µM): not able to completely suppress activation
- immunosuppression potency relative to CsA levels ([3]; from the multiple in vitro immunosuppression assays): ≤ 3%
- IC50 ([3]; range over both reporter lines and both stimulations, nonlinear regression, read-out: IC50 values, Jurkat activation): 205 to 311 nM
- IC50 ([3]; read-out: estimates of 50% inhibition derived directly from the graphs, range over Jurkat reporter assays): 340 to 500 nM
- Liver:Blood [CRV431] Ratio ([4]; 30 mg/kg per day oral, day 7, 12 hours post-dose): 6.6 ± 1.1
- Liver:Blood [CRV431] Ratio ([4]; 30 mg/kg per day oral, day 7, 24 hours post-dose): 4.8 ± 1.1
- Liver:Blood [CRV431] Ratio ([4]; 250 mg/kg per day oral, day 7, 12 hours post-dose): 7.6 ± 1.8
- Liver:Blood [CRV431] Ratio ([4]; 250 mg/kg per day oral, day 7, 24 hours post-dose): 5.3 ± 0.6
- IC50 [5]: > 50000 nM
- IC50 [6]: 300 nM
- CRV431 Inhibitory Potency vs. CsA [7]: 3.4× less
- CRV431 Inhibitory Potency vs. CsA [8]: Same (no inhibition)
- IC50 [8]: > 50000 nM
- CRV431 Inhibitory Potency vs. CsA [9]: Same (no inhibition)
- IC50 [9]: > 50000 nM
- CRV431 Inhibitory Potency vs. CsA [10]: >21× more
- IC50 [10]: 473 nM
